Values joined by “and” are separate entries in the source; they are usually repeats but may differ in a detail not shown here. Identical values can stand only once. Each block holds one compound with its values, some of them ahead of it.
Key:
[1] = target: T1, FGFR1 (Homo sapiens, UniProt P11362); test: HotSpot kinase screen; assay type: biochemical; conditions: 10μM ATP
T1 construct: purchased Reaction Biology Corporation (contract assay)

[2] = target: T2, FGFR3 (Homo sapiens, UniProt P22607); test: HotSpot kinase screen; assay type: biochemical; conditions: 1uM TKI, 10μM ATP
T2 construct: purchased Reaction Biology Corporation (contract assay)

[3] = target: T3, FGFR2 (Homo sapiens, UniProt P21802); test: HotSpot kinase screen; assay type: biochemical; conditions: 10μM ATP
T3 construct: purchased Reaction Biology Corporation (contract assay)
Procedure: (§1) Measurement of kinase activity was performed by Reaction Biology Corporation (Reaction Biology Corporation, Malvern, PA), using the HotSpot™ assay. The screen focused on RTKs reported in the literature to play a major role in the regulation of angiogenesis (VEGFR1, VEGFR2, and VEGFR3; fibroblast growth factor receptor [FGFR] 1, 2, and 3; and platelet-derived growth factor receptor beta [PDGFRβ]) as well as an RTK essential for maintaining blood vessel stability (TIE2). For the profiling, specific kinase/substrate pairs and required cofactors were prepared in a reaction buffer (20mM Hepes [pH 7.5], 10mM MgCl2, 1mM EGTA, 0.02% Brij35, 0.02 mg/mL BSA, 0.1mM Na3VO4, 2mM DTT, 1% dimethyl sulfoxide [DMSO]). TKI compounds were diluted to 10μM and 1μM concentrations for the screens and after addition to the reaction buffer incubated for 20 minutes, followed by the addition of a mixture of ATP (Sigma, St. Louis, MO) and ^33P-ATP (Perkin Elmer, Waltham, MA) to a final ATP concentration of 10μM. Reactions were carried out at room temperature for 2 hours, followed by spotting of the reactions onto P81 ion exchange filter paper (Whatman Inc., Piscataway, NJ). Unbound phosphate was removed by extensive washing of the filters. […] Kinome TREEspot images representing levels of inhibition were prepared using Kinome Mapper (https://www.reactionbiology.com/resources/tools/kinase-mapper).

[4] = target: T4, VEGFR3 (Homo sapiens, UniProt P35916); test: HotSpot kinase screen; assay type: biochemical; conditions: 10μM ATP
T4 construct: purchased Millipore Corporation (Dundee, Scotland) or Reaction Biology Corporation (contract assay)
T4 sequence (P35916 25-1363): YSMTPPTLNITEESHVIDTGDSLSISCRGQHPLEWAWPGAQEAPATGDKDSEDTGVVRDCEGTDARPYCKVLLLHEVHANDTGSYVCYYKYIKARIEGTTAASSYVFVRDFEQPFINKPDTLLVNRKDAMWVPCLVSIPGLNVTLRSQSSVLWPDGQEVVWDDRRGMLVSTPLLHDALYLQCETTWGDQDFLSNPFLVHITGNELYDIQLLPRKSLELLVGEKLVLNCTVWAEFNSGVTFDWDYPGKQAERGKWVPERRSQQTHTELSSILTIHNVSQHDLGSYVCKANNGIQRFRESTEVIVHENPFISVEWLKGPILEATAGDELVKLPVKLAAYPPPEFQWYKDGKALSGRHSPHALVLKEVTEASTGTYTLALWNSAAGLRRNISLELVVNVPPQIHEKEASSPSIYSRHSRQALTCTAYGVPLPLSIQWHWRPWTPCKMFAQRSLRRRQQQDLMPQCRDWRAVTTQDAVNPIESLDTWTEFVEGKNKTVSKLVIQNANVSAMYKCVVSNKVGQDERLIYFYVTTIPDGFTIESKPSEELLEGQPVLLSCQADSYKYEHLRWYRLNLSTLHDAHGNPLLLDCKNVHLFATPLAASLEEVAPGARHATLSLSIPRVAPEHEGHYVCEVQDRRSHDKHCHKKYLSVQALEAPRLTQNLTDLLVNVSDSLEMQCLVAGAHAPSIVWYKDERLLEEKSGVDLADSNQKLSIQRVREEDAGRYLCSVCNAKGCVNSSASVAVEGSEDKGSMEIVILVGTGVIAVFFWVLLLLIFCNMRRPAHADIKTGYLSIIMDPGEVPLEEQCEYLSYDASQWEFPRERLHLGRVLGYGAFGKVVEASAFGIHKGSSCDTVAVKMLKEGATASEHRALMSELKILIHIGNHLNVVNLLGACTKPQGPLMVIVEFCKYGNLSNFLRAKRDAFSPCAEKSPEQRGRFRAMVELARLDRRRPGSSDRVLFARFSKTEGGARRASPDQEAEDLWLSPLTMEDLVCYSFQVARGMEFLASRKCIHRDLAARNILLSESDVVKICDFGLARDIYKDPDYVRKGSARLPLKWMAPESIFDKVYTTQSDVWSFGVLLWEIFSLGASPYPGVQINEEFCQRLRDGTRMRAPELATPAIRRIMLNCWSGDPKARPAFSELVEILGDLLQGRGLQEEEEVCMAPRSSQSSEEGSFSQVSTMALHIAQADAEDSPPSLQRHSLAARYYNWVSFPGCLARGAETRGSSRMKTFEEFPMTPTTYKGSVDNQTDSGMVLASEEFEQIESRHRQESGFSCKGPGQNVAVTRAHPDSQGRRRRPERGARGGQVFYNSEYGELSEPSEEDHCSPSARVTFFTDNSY
Procedure: as §1

[5] = target: T5, PDGFRβ (Homo sapiens, UniProt P09619); test: HotSpot kinase screen; assay type: biochemical; conditions: 10μM ATP
T5 construct: purchased Reaction Biology Corporation (contract assay)

[6] = target: T4, VEGFR3; test: Ten-dose IC50 measurement; assay type: biochemical; conditions: 10μM ATP
[7] = tested on: VEGF-A–induced sprouting of HUVECs; test: HUVEC spheroid sprouting assay; assay type: cell-based, human; conditions: for cumulative sprout length per spheroid (CSL), mean: 25 ng/mL VEGF-165, 24 hours
Procedure: The three TKI compounds were tested by Reaction Biology Europe (Freiburg, Germany) in the spheroid-based cellular angiogenesis assay to determine their effect on VEGF-A–induced sprouting of HUVECs. Primary HUVECs from pooled donors at passage 3 to 4 (PromoCell, Heidelberg, Germany) were grown in endothelial cell growth and basal medium (ECGM/ECBM, PromoCell). Test compounds were prepared as 100-fold concentrated stock solutions in DMSO and pre-diluted in basal medium. HUVECs were stimulated using 25 ng/mL VEGF-165 (Reaction Biology Europe, Freiburg, Germany) pre-diluted in basal medium.
Spheroids were prepared as described by pipetting 400 HUVECs in a hanging drop on plastic dishes to allow overnight spheroid aggregation. Fifty HUVEC spheroids were seeded in 0.9 mL of a collagen gel and pipetted into individual wells of a 24-well plate to allow polymerization. Test compounds and VEGF-165 were added after 30 minutes by pipetting 100 μL of a ten-fold concentrated solution onto the polymerized gel. Plates were incubated at 37°C for 24 hours, and cells were fixed by adding 4% paraformaldehyde (Roth, Karlsruhe, Germany). Sprouting intensity of HUVEC spheroids treated with the test samples was quantitated using an image analysis system to determine the cumulative sprout length (CSL) per spheroid. Images of single spheroids were captured using an inverted microscope and the digital imaging software NIS-Elements BR 3.0 (Nikon). Spheroid pictures were uploaded to Wimasis (www.wimasis.com) for image analysis. The CSL of each spheroid was determined using the imaging analysis tool WimSprout. The mean CSL of ten randomly selected spheroids was analyzed as an individual data point.

[8] = target: T6, VEGFR1 (Homo sapiens, UniProt P17948); test: Ten-dose IC50 measurement; conditions: 10μM ATP
T6 sequence (P17948 27-1338): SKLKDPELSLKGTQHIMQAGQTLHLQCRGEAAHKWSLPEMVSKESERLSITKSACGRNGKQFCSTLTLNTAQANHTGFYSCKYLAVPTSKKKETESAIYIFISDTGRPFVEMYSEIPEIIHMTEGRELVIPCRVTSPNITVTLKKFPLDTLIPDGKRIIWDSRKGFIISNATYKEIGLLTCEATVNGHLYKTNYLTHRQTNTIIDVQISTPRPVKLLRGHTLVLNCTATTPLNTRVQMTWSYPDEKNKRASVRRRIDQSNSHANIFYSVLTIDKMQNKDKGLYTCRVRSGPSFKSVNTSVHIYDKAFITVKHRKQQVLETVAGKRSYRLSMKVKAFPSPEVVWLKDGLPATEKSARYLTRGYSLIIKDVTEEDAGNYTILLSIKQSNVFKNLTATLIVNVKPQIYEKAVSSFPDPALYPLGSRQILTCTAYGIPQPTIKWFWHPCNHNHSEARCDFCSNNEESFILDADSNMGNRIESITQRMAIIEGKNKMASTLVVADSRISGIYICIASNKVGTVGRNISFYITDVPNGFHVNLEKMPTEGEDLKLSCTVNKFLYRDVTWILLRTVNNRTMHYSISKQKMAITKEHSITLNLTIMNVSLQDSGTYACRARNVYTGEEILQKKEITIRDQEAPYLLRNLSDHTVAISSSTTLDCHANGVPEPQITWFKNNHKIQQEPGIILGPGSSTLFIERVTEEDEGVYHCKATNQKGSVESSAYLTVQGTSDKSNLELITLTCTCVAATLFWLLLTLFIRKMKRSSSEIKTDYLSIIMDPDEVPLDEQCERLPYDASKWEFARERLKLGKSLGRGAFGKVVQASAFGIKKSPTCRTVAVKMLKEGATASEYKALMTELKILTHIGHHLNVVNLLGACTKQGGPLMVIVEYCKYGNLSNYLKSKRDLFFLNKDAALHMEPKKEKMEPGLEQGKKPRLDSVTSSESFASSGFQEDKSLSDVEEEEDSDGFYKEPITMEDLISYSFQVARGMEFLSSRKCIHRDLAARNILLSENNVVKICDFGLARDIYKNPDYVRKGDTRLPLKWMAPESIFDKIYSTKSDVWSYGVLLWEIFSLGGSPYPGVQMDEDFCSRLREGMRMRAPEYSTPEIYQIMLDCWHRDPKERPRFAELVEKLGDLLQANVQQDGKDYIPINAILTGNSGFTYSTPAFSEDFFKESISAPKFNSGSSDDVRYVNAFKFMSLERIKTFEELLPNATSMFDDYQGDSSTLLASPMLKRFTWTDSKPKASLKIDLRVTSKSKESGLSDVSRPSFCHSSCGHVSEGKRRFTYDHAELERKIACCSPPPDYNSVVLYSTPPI

[9] = target: T7, TIE2 (Homo sapiens, UniProt Q02763); test: Ten-dose IC50 measurement; conditions: 10μM ATP
T7 sequence (Q02763 23-1124): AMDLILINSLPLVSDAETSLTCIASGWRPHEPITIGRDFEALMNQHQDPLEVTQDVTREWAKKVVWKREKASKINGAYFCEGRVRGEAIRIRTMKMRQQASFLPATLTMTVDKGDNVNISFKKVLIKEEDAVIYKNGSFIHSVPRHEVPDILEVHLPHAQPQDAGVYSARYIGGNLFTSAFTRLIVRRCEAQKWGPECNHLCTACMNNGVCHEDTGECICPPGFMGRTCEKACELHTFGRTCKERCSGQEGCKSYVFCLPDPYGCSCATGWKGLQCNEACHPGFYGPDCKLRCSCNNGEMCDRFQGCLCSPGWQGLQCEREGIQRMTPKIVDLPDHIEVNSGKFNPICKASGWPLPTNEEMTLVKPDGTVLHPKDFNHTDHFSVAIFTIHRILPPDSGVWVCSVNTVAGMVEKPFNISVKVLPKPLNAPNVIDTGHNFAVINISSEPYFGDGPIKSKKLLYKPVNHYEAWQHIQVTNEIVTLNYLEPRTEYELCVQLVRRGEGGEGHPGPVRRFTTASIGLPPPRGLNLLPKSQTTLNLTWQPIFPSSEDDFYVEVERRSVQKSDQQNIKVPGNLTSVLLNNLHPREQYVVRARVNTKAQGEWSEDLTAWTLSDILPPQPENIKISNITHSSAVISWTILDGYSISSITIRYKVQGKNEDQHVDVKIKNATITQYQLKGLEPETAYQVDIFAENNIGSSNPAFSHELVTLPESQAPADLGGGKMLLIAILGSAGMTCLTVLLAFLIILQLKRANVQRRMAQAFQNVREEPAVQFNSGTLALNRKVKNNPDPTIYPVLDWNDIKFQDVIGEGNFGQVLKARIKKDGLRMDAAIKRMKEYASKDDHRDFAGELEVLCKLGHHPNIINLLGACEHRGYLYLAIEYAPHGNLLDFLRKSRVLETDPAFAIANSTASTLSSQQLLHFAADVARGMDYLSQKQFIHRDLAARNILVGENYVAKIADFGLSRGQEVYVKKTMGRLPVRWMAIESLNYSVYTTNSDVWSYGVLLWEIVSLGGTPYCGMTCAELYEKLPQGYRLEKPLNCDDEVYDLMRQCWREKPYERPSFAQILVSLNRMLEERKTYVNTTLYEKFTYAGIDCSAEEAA

[10] = target: T7, TIE2; test: HotSpot kinase screen; assay type: biochemical; set-up: purchased Reaction Biology Corporation (contract assay); conditions: 1uM TKI, 10μM ATP
[11] = tested on: VEGF-induced angiogenesis on the CAM; test: Gelatin sponge chick chorioallantoic membrane (CAM) assay
[12] = target: T6, VEGFR1; test: HotSpot kinase screen; assay type: biochemical; set-up: purchased Millipore Corporation (Dundee, Scotland) or Reaction Biology Corporation (contract assay); conditions: 10μM ATP
Procedure: as §1

[13] = synthetic melanin, 0.06 to 25.0μM, 37°C, 1 hour, ± SEM

T1 sequence (P11362 22-822): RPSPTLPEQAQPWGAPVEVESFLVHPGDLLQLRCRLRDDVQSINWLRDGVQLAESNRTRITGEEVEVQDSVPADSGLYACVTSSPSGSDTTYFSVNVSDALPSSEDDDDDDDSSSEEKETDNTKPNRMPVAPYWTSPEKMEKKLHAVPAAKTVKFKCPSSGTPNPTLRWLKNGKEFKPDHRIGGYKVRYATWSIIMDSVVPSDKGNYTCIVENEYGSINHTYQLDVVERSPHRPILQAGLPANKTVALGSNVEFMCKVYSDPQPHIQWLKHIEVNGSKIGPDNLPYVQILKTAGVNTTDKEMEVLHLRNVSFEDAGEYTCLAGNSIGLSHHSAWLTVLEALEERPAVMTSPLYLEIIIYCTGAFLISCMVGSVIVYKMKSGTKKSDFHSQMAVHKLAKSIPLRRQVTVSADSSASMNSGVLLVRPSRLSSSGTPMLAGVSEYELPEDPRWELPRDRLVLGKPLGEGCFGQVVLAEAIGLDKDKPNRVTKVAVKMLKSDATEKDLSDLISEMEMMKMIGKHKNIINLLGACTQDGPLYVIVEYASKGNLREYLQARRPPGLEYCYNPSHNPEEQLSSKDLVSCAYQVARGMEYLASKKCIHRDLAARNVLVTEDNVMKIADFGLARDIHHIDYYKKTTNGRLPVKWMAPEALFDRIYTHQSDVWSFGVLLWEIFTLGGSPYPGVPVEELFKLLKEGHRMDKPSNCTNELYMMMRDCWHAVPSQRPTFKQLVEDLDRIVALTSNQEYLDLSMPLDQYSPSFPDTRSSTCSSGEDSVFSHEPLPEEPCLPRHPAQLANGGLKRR

SMILES: CCN(CC)CCNC(=O)c1c(C)[nH]c(/C=C2\C(=O)Nc3ccc(F)cc32)c1C [Sunitinib]
Avg % Inhibition FGFR1 ([1]; 1uM TKI): 61.61%
Avg % Inhibition FGFR1 ([1]; 10uM TKI): 93.09%
Avg % Inhibition FGFR3 [2]: 79.29%
Avg % Inhibition FGFR2 ([3]; 1uM TKI): 77.42%
Avg % Inhibition FGFR2 ([3]; 10uM TKI): 98.03%
Avg % Inhibition VEGFR3 ([4]; 1uM TKI): 86.7%
Avg % Inhibition VEGFR3 ([4]; 10uM TKI): 99.18%
Avg % Inhibition PDGFRb ([5]; 1uM TKI): 92.22%
Avg % Inhibition PDGFRb ([5]; 10uM TKI): 97.19%
%Activity VEGFR3 ([6]; 1.00E-05 M TKI): 1.67%
%Activity VEGFR3 ([6]; 1.11E-06 M TKI): 9.53%
%Activity VEGFR3 ([6]; 1.23E-07 M TKI): 31.11%
%Activity VEGFR3 ([6]; 1.37E-08 M TKI): 63.61%
%Activity VEGFR3 ([6]; 1.52E-09 M TKI): 80.77%
%Activity VEGFR3 ([6]; 3.33E-06 M TKI): 3.43%
%Activity VEGFR3 ([6]; 3.70E-07 M TKI): 18.20%
%Activity VEGFR3 ([6]; 4.12E-08 M TKI): 47.10%
%Activity VEGFR3 ([6]; 4.57E-09 M TKI): 73.23%
%Activity VEGFR3 ([6]; 5.08E-10 M TKI): 86.68%
cumulative sprout length per spheroid (CSL), mean ([7]; 1.00E-05 M TKI): 99
cumulative sprout length per spheroid (CSL), mean ([7]; 1.00E-06 M TKI): 298
cumulative sprout length per spheroid (CSL), mean ([7]; 1.00E-07 M TKI): 387
cumulative sprout length per spheroid (CSL), mean ([7]; 3.00E-06 M TKI): 173
cumulative sprout length per spheroid (CSL), mean ([7]; 3.00E-07 M TKI): 230
cumulative sprout length per spheroid (CSL), mean ([7]; 3.00E-08 M TKI): 893
vessel sprouting (representative spheroid images) ([7]; highest test concentration of 1×10^–5M): zero vessel sprouting
%Activity VEGFR1 ([8]; 1.00E-05 M TKI): 2.53%
%Activity VEGFR1 ([8]; 1.11E-06 M TKI): 20.58%
%Activity VEGFR1 ([8]; 1.37E-08 M TKI): 78.18%
%Activity VEGFR1 ([8]; 1.52E-09 M TKI): 84.25%
%Activity VEGFR1 ([8]; 3.33E-06 M TKI): 8.53%
%Activity VEGFR1 ([8]; 3.70E-07 M TKI): 35.25%
%Activity VEGFR1 ([8]; 4.12E-08 M TKI): 63.70%
%Activity VEGFR1 ([8]; 4.57E-09 M TKI): 84.35%
%Activity VEGFR1 ([8]; 5.08E-10 M TKI): 93.32%
%Activity TIE2 ([9]; 1.00E-05 M TKI): 44.88%
%Activity TIE2 ([9]; 1.11E-06 M TKI): 93.41%
%Activity TIE2 ([9]; 1.37E-08 M TKI): 98.62%
%Activity TIE2 ([9]; 1.52E-09 M TKI): 99.65%
%Activity TIE2 ([9]; 3.33E-06 M TKI): 74.48%
%Activity TIE2 ([9]; 3.70E-07 M TKI): 96.23%
%Activity TIE2 ([9]; 4.12E-08 M TKI): 95.60%
%Activity TIE2 ([9]; 4.57E-09 M TKI): 97.42%
%Activity TIE2 ([9]; 5.08E-10 M TKI): 95.09%
Avg % Inhibition TIE2 [10]: 5.03%
Avg % Inhibition TIE2 ([10]; listed as sunitinib): 5%
Angiogenesis - Vessel number, Mean ([11]; TKI at 200 x VEGFR2 IC50): 7
Angiogenesis - Vessel number, individual egg ([11]; TKI at 200 x VEGFR2 IC50, one value per egg): 8.67 and 8.33 and 1.67 and 6.67 and 3.33
reduction of the number of blood vessels perfusing the sponges vs negative control ([11]; TKI at 200× VEGFR2 IC50 dose): 49.3%
Angiogenesis - Vessel thickness score, Mean ([11]; TKI at VEGFR2 IC50 dose, score 0-3): 1.8
Angiogenesis - Vessel thickness score, individual egg ([11]; TKI at VEGFR2 IC50 dose, score 0-3, one value per egg): 3 and 0.67 and 2 and 2.33 and 1.33 and 1
Avg % Inhibition VEGFR1 ([12]; 1uM TKI): 77.03%
Avg % Inhibition VEGFR1 ([12]; 10uM TKI): 93.14%

Kd [13]: 3.06 ± 0.6 µM
SMILES: CCN(CC)CCCC(C)Nc1ccnc2cc(Cl)ccc12 (stereo not drawn) [Chloroquine]
